Values quoted from earlier work in patent publication US12691071B2 (SHANGHAI YONSUN BIOTECHNOLOGY CO., LTD., priority 2021, dated 2026).

COC[C@@H](NC(C)=O)C(=O)NCc1ccccc1 [Lacosamide, (2R)-2-acetamido-N-benzyl-3-methoxypropanamide]
solubility in acetonitrile or ethanol (acetonitrile or ethanol): slightly soluble | solubility in methanol or acetone (methanol or acetone): easily soluble
